Here are results for ten compounds from patent publication US6770747B1, “Genes encoding protein having activity of transferring sugar onto aurone” (Suntory Limited, priority 1999, dated 2004).

Assay [1] deals with product of the pS.b UFGT1 gene. The experiment in a line: Glycosyl transferase activity of pS.b UFGT1 gene product (crude E. coli extract, UDP-glucose, HPLC). The class given is biochemical, Scutellaria baicalensis. The settings on record: crude enzyme solution, 30° C., HPLC detection of glycosides. On the procedure: The activity of the pS.b UFGT1 gene derived from Scutellaria baicalensis of transferring a glycosyl group to aurones was determined using an expression vector pESBGT-1 in E. coli prepared by the following method.
The PCR product was digested with NdeI and BamHI, and then was ligated to the NdeI- and BamHI-digested pET-3a vector (Stratagene) to construct pESBGT-1 (FIG. 1). Using each of pESBGT-1 and pET-3a vector, it was transformed into Epicurian Coli BL21 (DE3) (Stratagene). The transformants were incubated overnight at 37° C. in 3 ml of a LB medium containing 50 μg/ml of ampicillin. The preculture (500 μl) was added to 50 ml of a LB medium containing 50 μg/ml of ampicillin, and cultured until A600 reached 0.6-1.0. Then isopropyl-β-D-thiogalactopyranoside (IPTG) was added thereto to a final concentration of 0.5 mM, which was cultured at 28° C. for 4 hours and centrifuged (5000 rpm, 10 minutes, 4° C.) to collect the cells.
The pellets were suspended in 5 ml of the buffer (10 mM sodium phosphate, pH 6.5, 1 mM β-mercaptoethanol (2-ME)). After the E. coli cells were disrupted by a sonicator, it was centrifuged (15,000 rpm, 5 minutes, […]), and the supernatant obtained was used as a crude enzyme solution for the next enzyme reaction.
In addition to aureusidin, the enzymatic activity was determined using naringenin or luteolin as the substrate.
To 50 μl of the crude enzyme solution were added 0.1 M Tris-HCl, pH 8.0, and 150 μl of 0.05% 2-ME, and then incubated at 30° C. for 10 minutes. Then 5 μl of 4.66 mM aureusidin and 50 μl of 5 mM UDP-glucose were added thereto, and was allowed to react at 30° C. for 1 hour. […] The filtrate was analyzed by high performance liquid chromatography. […]
To 20 μl of the crude enzyme solution were added 25 μl of 0.1 M citric acid-phosphate buffer, pH 6.5, 5 μl each of 5 μM substrate, and 25 μl of 5 mM UDP-glucose in a total volume of 250 μl, and then incubated at 30° C. for 30 minutes. […] The filtrate was analyzed by high performance liquid chromatography. […]

Assay [2] addresses T1, flavonoid-3-glycosyl transferase derived from gentians (Gentiana triflora, UniProt Q96493).
T1 construct: host or cells: E. coli
T1 sequence (Q96493 1-453): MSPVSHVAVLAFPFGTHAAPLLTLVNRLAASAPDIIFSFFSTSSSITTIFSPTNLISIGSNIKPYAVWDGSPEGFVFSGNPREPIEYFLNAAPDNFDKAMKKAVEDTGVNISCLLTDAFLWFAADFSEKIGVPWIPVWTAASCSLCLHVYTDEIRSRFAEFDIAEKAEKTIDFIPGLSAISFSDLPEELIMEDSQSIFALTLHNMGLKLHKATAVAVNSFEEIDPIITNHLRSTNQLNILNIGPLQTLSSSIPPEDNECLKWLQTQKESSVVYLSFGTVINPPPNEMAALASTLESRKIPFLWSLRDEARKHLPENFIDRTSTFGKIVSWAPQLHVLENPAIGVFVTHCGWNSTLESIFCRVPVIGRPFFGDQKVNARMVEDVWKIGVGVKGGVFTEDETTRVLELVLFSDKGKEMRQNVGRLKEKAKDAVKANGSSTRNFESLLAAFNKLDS
As to conditions: substance used as substrate; enzyme expressed in E coli; cited from earlier work.

Assay [3] deals with T2, flavonoid-3-glycosyl transferase derived from grapes (Vitis vinifera, UniProt P51094).
T2 construct: host or cells: E. coli
T2 sequence (P51094 1-456): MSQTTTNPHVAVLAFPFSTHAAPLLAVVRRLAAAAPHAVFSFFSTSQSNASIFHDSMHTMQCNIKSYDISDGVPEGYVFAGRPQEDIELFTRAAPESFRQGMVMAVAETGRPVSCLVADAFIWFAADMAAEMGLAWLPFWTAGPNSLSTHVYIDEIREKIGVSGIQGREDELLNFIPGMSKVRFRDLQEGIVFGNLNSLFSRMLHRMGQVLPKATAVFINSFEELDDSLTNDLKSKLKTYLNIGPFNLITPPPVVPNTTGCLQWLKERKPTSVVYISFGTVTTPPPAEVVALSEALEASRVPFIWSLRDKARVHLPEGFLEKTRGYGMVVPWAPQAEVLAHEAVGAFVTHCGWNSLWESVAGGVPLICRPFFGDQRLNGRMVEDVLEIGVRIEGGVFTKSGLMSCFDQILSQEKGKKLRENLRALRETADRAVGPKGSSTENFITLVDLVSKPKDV
As to conditions: substance used as substrate; activity determined in E. coli; cited from earlier work.

The subject of assay [4] is product of the pS.b UFGT1 gene. As to conditions: substrate baicalein; cited from earlier work.
Another assay has as its system AmGT1. Put plainly: Glycosyl transferase activity of the AmGT1 cDNA recombinant protein. The class given is biochemical, snapdragons (Antirrhinum majus). The settings on record: crude extract, UDP-glucose, HPLC, as in Example 1. As to the method:
(§1) To 50 μl of the crude enzyme solution were added 0.1 M Tris-HCl, pH 8.0, and 150 μl of 0.05% 2-ME, and then incubated at 30° C. for 10 minutes. Then 5 μl of 4.66 mM aureusidin and 50 μl of 5 mM UDP-glucose were added thereto, and was allowed to react at 30° C. for 1 hour. After the reaction was stopped by adding 200 μl of 90% acetonitrile containing 5% trifluoroacetic acid (TFA), it was centrifuged at 15,000 rpm and 4° C. for 3 minutes. The supernatant thus obtained was filtered (pore size 0.45 μm, 4 mm Millex-LH, Millipore) to remove insoluble substances. The filtrate was analyzed by high performance liquid chromatography.
(§2) The analytical condition was as follows: The column used was Asahipak-ODP-50 (4.6 mm φ×250 mm, Showa Denko). The mobile phase comprised water containing 0.1% TFA as solution A and 90% CH3CN containing 0.1% TFA as solution B. After a linear gradient from 20% solution B to 100% solution B for 20 minutes, 100% solution B was retained for 5 minutes. The flow rate was 0.6 ml/min. Detection used A380 nm, and an absorption spectrum at 250-400 nm using Shimadzu PDA detector SPD-M6A.
The transformant obtained in Example 4 was cultured, extracted and the enzymatic activity was measured as in Example 1.

Another assay deals with Ph7GTa. Put plainly: Glycosyl transferase activity of Ph7GTa cDNA recombinant protein. The format is biochemical, petunia (Petunia hybrida). The settings on record: crude extract, UDP-glucose, HPLC, as in Example 1. As to the method: as §1, §2
(§3) The transformants obtained in Example 8 were cultured, extracted and the enzymatic activity was measured as in Example 1. The enzymatic activity was measured using aureusidin as the substrate. […]

Another assay relates to Ph7GTb. The experiment in a line: Glycosyl transferase activity of Ph7GTb cDNA recombinant protein. The class given is biochemical, petunia (Petunia hybrida). As to conditions: crude extract, UDP-glucose, HPLC, as in Example 1. On the procedure:
as §1, §2, §3

Entries after “also recorded” stand apart in the source; their conditions may differ.

For `O=c1cc(-c2ccc(O)c(O)c2)oc2cc(O)cc(O)c12` [luteolin], the “glycosilation of the substrate by the pS.b UFGT1 product” value in assay [1] is recorded as “can glycosilate”.

In the case of `O=C1C[C@@H](c2ccc(O)cc2)Oc2cc(O)cc(O)c21` [naringenin], the “glycosilation of the substrate by the pS.b UFGT1 product” value in assay [1] is “very little effect; also recorded: no reaction occurred”.

Turning to pelargonidins, the “glycosyl transferase activity relative to a 100% activity to delphinidins” value in assay [2] is 38%.

As for cyanidins, in assay [2], the “glycosyl transferase activity relative to a 100% activity to delphinidins” value is 61%. In addition, in assay [3], the Km (commonly the concentration of substrate that gives half-maximal velocity) is 30 µM and the Vmax is 905 nkatals/mg.

Take `O=c1c(O)c(-c2ccc(O)cc2)oc2cc(O)cc(O)c12` [kaempferol]: in assay [2], the “glycosyl transferase activity relative to a 100% activity to delphinidins” value is on record as 7.0%.

On to `O=c1cc(-c2ccccc2)oc2cc(O)c(O)c(O)c12` [baicalein], for which, in assay [4], the “portion detected as 7 glycoside after the reaction is complete” value was about 100%.

On to `O=c1c(O)c(-c2ccc(O)c(O)c2)oc2cc(O)cc(O)c12` [quercetin], for which the “glycosyl transferase activity relative to a 100% activity to delphinidins” value in assay [2] was 6.5%. For the same compound, in assay [3], the Km is 15 µM and the Vmax is reported as 18.9 nkatals/mg.

In the case of `O=c1c(O)c(-c2cc(O)c(O)c(O)c2)oc2cc(O)cc(O)c12` [myricetin], in assay [2], the “glycosyl transferase activity relative to a 100% activity to delphinidins” value is on record as 4.4%.

As for `O=C1/C(=C/c2ccc(O)c(O)c2)Oc2cc(O)cc(O)c21` [aureusidin], the “glycosilation of the substrate by the pS.b UFGT1 product” value in assay [1] is on record as “can glycosilate”. For the same compound, in the assay with AmGT1, the “glycosyl transfer to the substrate by AmGT1” value is “can transfer a glycosyl group to the positions 6 and 4”. Besides, the “glycosilation of the substrate by Ph7GTa” value with Ph7GTa is listed as “activity of glycosilating”. Moreover, the “glycosilation of the substrate by Ph7GTb” value with Ph7GTb is “activity of glycosilating”.

For delphinidins, the “glycosyl transferase activity relative to a 100% activity to delphinidins” value in assay [2] is 100%.
